Consider 17 compounds from US20230293458A1, “MULTIBIOTIC AGENTS AND METHODS OF USING THE SAME” (Flagship Pioneering Innovations V, Inc., priority 2017, published 2023).

The nature of data set [1]: Stability of multibiotic agents in Simulated Intestinal Fluid (SIF). In kind it is in vitro ADME. The settings on record: simulated intestinal fluid pH 6.7 with pancreatin, 37° C., 1 μM. Here is the method:
Assay 2. Stability of multibiotic agents in Simulated Intestinal Fluid (SIF). This assay can be used to assess the stability of a multibiotic agent in a small intestine. Phosphate buffer was prepared by dissolving 0.42 g of sodium hydroxide pellets and 3.95 g of monobasic sodium phosphate monohydrate and 6.19 g of sodium chloride in ultrapure water (MilliQ®, Millipore Sigma, Darmstadt, Germany). The pH was adjusted to 6.7 using aq. HCl and aq. NaOH, as necessary, and the solution was diluted with ultrapure water to produce 1 L of the pH 6.7 buffer. 112 mg FaSSIF powder (Biorelevant™, London, UK) was dissolved in 50 mL of the pH 6.7 buffer. 2 to 3 mL of the resulting solution were then added to 500 mg pancreatin (Millipore Sigma, Darmstadt, Germany). The resulting mixture was agitated by finger tapping the vessel containing the mixture until milky suspension formed. At this time, the remainder of the 50 mL FaSSiF/pH 6.7 buffer solution was added. The resulting suspension was flipped upside down 10 times to produce SIF, which was used fresh. Test compounds are dissolved in DMSO stock to 1 mM. An aliquot of the DMSO stock solution is removed and diluted in the SIF media in 15 mL falcon tubes to produce a mixture with a tested compound concentration of 1 μM. A 1 mL aliquot is immediately removed and diluted once with 1 volume of acetonitrile for T0 timepoint. The mixture is sealed and agitated at 37° C. in an incubator. Aliquots (1 mL) are removed at regular intervals and immediately quenched by the addition of 1 volume of acetonitrile. The resulting samples are analyzed by LC/MS to determine degradation rates.

Data set [2] in a line: Stability of multibiotic agents in Simulated Gastric Fluid (SGF). In kind it is in vitro ADME. The settings on record: simulated gastric fluid pH 1.6 with pepsin, 37° C., 1 μM. On the procedure:
Assay 3. Stability of multibiotic agents in Simulated Gastric Fluid (SGF). This assay can be used to assess the stability of a multibiotic agent in a stomach.
Medium was prepared by dissolving 2 g of sodium chloride in 0.6 L in ultrapure water (MilliQ®, Millipore Sigma, Darmstadt, Germany). The pH was adjusted to 1.6 with 1 N hydrochloric acid, and the volume was then adjusted to 1 L with purified water.
60 mg FaSSIF powder (Biorelevant™, London, UK) were dissolved in 500 mL buffer (above). Pepsin was added (0.1 mg/mL) (Millipore Sigma, Darmstadt, Germany), and the solution was stirred. The resulting SGF media were used fresh for each experiment.
Test compounds were dissolved in DMSO stock to 1 mM. An aliquot of the DMSO stock solution was removed and diluted in the SGF Media in 15 mL falcon tubes to generate a total compound concentration of 1 μM. A 1 mL aliquot was immediately removed and diluted once with 1 volume of acetonitrile for T0 timepoint. The mixture was sealed and mixed at 37° C. in an incubator. Aliquots (1 mL) were removed at regular intervals and immediately quenched by the addition of 1 volume of acetonitrile. The resulting samples were analyzed by LC/MS to determine degradation rates in SGF.

On to `CCCC(=O)O[C@H](C)CC(=O)Oc1ccc(/C=C/C(=O)CC(=O)/C=C/c2ccc(OC(=O)C[C@@H](C)OC(=O)CCC)c(OC)c2)cc1OC` [Example 73, [4-[(1E,6E)-7-[4-[(3R)-3-butanoyloxybutanoyl]oxy-3-methoxy-phenyl]-3,5-dioxo-hepta-1,6-dienyl]-2-methoxy-phenyl] (3R)-3-butanoyloxybutanoate], for which, in data set [1], the “Assay 3 (SIF) (% @ Remaining 4 hours)” value is “B (25-75% of the tested compound remaining)”. The “Assay 2 (SGF) (% Remaining @ 4 hours)” value in data set [2] is “C (>75% of the tested compound remaining)”.
Consider `CC(=O)Oc1cc(OC(C)=O)c2c(=O)c(OC(C)=O)c(-c3ccc(OC(C)=O)c(OC(C)=O)c3)oc2c1` [Example 74, [2-acetoxy-4-(3,5,7-triacetoxy-4-oxo-chromen-2-yl)phenyl] acetate], for which the “Assay 3 (SIF) (% @ Remaining 4 hours)” value in data set [1] was “A (<25% of the tested compound remaining)”. The “Assay 2 (SGF) (% Remaining @ 4 hours)” value in data set [2] is “C (>75% of the tested compound remaining)”.
Take `CCCC(=O)Oc1cc(OC(=O)CCC)c2c(=O)c(OC(=O)CCC)c(-c3ccc(OC(=O)CCC)c(OC(=O)CCC)c3)oc2c1` [Example 75, [2-butanoyloxy-4-[3,5,7-tri(butanoyloxy)-4-oxo-chromen-2-yl]phenyl]butanoate]: the “Assay 3 (SIF) (% @ Remaining 4 hours)” value in data set [1] was “B (25-75% of the tested compound remaining)”. Further, the “Assay 2 (SGF) (% Remaining @ 4 hours)” value in data set [2] is on record as “C (>75% of the tested compound remaining)”.
For `C[C@@H](O)CC(=O)O[C@H]1CO[C@H]2[C@@H]1OC[C@H]2OC(=O)C[C@@H](C)O` [Example 78, [(3S,3aR,6R,6aR)-6-[(3R)-3-hydroxybutanoyl]oxy-2,3,3a,5,6,6a-hexahydrofuro[3,2-b]furan-3-yl] (3R)-3-hydroxybutanoate], in that order: “B (25-75% of the tested compound remaining)” and “C (>75% of the tested compound remaining)”.
Take `CC(=O)OCc1cnc(C)c(O)c1COC(C)=O` [Example 80, [4-(acetoxymethyl)-5-hydroxy-6-methyl-3-pyridyl] methyl acetate]: in data set [1], the “Assay 3 (SIF) (% @ Remaining 4 hours)” value is on record as “C (>75% of the tested compound remaining)”. For the same compound, the “Assay 2 (SGF) (% Remaining @ 4 hours)” value in data set [2] is “C (>75% of the tested compound remaining)”.
In the case of `CC(=O)OC[C@H](OC(C)=O)[C@@H](COC(C)=O)OC(C)=O` [Example 81, (2R, 3S)-butane-1,2,3,4-tetrayl tetraacetate], in data set [1], the “Assay 3 (SIF) (% @ Remaining 4 hours)” value is recorded as “C (>75% of the tested compound remaining)”. Also, the “Assay 2 (SGF) (% Remaining @ 4 hours)” value in data set [2] is given as “C (>75% of the tested compound remaining)”.
For the compound `CCCC(=O)OC[C@H](OC(=O)CCC)[C@@H](COC(=O)CCC)OC(=O)CCC` [Example 82, (2R,3S)-butane-1,2,3,4-tetrayl tetrabutyrate], in data set [1], the “Assay 3 (SIF) (% @ Remaining 4 hours)” value is listed as “B (25-75% of the tested compound remaining)”. The “Assay 2 (SGF) (% Remaining @ 4 hours)” value in data set [2] was “C (>75% of the tested compound remaining)”.
For `CO[C@@H]1[C@@H](OC(C)=O)[C@@H](OC(C)=O)[C@H](OC(C)=O)[C@H](OC(C)=O)[C@H]1OC(C)=O` [Example 84, (1R,2R,3R,4S,5R,6R)-2,3,4,6-tetrakis(acetyloxy)-5-methoxycyclohexyl acetate], in that order: “C (>75% of the tested compound remaining)” and “C (>75% of the tested compound remaining)”.
In the same order, the values of `CCCC(=O)O[C@H]1[C@H](OC(=O)CCC)[C@H](OC(=O)CCC)[C@@H](OC)[C@H](OC(=O)CCC)[C@H]1OC(=O)CCC` [Example 85, (1R,2R,3R,4S,5R,6R)-2,3,4,6-tetrakis(butanoyloxy)-5-methoxycyclohexyl butanoate] are “C (>75% of the tested compound remaining)” and “C (>75% of the tested compound remaining)”.
`CC(=O)OC[C@@H](OC(C)=O)[C@H]1OC[C@H](OC(C)=O)[C@H]1OC(C)=O` [Example 86, [(2R)-2-acetoxy-2-[(2R,3R,4S)-3,4-diacetoxytetrahydrofuran-2-yl]ethyl] acetate]: the “Assay 3 (SIF) (% @ Remaining 4 hours)” value in data set [1] is on record as “C (>75% of the tested compound remaining)”. Besides, the “Assay 2 (SGF) (% Remaining @ 4 hours)” value in data set [2] is given as “C (>75% of the tested compound remaining)”.
As for `CCCC(=O)OC[C@@H](OC(=O)CCC)[C@H]1OC[C@H](OC(=O)CCC)[C@H]1OC(=O)CCC` [Example 87, [(2R)-2-butanoyloxy-2-[(2R,3R,4S)-3,4-di (butanoyloxy)tetrahydrofuran-2-yl]ethyl] butanoate], the “Assay 3 (SIF) (% @ Remaining 4 hours)” value in data set [1] is recorded as “C (>75% of the tested compound remaining)”. In data set [2], the “Assay 2 (SGF) (% Remaining @ 4 hours)” value is reported as “C (>75% of the tested compound remaining)”.
Turning to `CC(=O)O[C@H]1CO[C@H]2[C@@H]1OC[C@H]2OC(C)=O` [Example 88, [(3S,3aR,6R,6aR)-6-acetoxy-2,3,3a,5,6,6a-hexahydrofuro[3,2-b]furan-3-yl] acetate], the “Assay 3 (SIF) (% @ Remaining 4 hours)” value in data set [1] was “C (>75% of the tested compound remaining)”. In addition, in data set [2], the “Assay 2 (SGF) (% Remaining @ 4 hours)” value was “C (>75% of the tested compound remaining)”.
For `CC(=O)OCCCNC(=O)[C@H](OC(C)=O)C(C)(C)COC(C)=O` [Example 89, 3-[[(2R)-2,4-diacetoxy-3,3-dimethyl-butanoyl]amino]propyl acetate], the “Assay 3 (SIF) (% @ Remaining 4 hours)” value in data set [1] was “C (>75% of the tested compound remaining)”. The “Assay 2 (SGF) (% Remaining @ 4 hours)” value in data set [2] was “C (>75% of the tested compound remaining)”.
On to `CCCC(=O)OCCCNC(=O)[C@H](OC(=O)CCC)C(C)(C)COC(=O)CCC` [Example 90, 3-[[(2R)-2,4-di(butanoyloxy)-3,3-dimethyl-butanoyl]amino] propyl butanoate], for which the “Assay 3 (SIF) (% @ Remaining 4 hours)” value in data set [1] was “A (<25% of the tested compound remaining)”. For the same compound, the “Assay 2 (SGF) (% Remaining @ 4 hours)” value in data set [2] was “C (>75% of the tested compound remaining)”.
In the same order, the values of `CCCC(=O)O[C@H](C)CC(=O)OCCCNC(=O)[C@H](OC(=O)C[C@@H](C)OC(=O)CCC)C(C)(C)COC(=O)C[C@@H](C)OC(=O)CCC` [Example 91, 3-[[(2R)-2,4-bis[[(3R)-3-butanoyloxybutanoyl]oxy]-3,3-dimethyl-butanoyl]amino]propyl (3R)-3-butanoyloxybutanoate] are “A (<25% of the tested compound remaining)” and “C (>75% of the tested compound remaining)”.
In the same order, the values of `CC(C)(COC(=O)Cc1c[nH]c2ccccc12)[C@@H](OC(=O)Cc1c[nH]c2ccccc12)C(=O)NCCCOC(=O)Cc1c[nH]c2ccccc12` [Example 92, 3-[[(2R)-2,4-bis[[2-(1H-indol-3-yl)acetyl]oxy]-3,3-dimethyl-butanoyl]amino]propyl 2-(1H-indol-3-yl)acetate] are “C (>75% of the tested compound remaining)” and “C (>75% of the tested compound remaining)”.
For `CC(=O)OCC(C)(C)[C@@H](OC(C)=O)C(=O)NCCC(N)=O` [Example 94, [(3R)-3-acetoxy-4-[(3-amino-3-oxo-propyl)amino]-2,2-dimethyl-4-oxo-butyl] acetate], in that order: “C (>75% of the tested compound remaining)” and “C (>75% of the tested compound remaining)”.
